Measurements from US10821148B2, “Pharmaceutical composition for treating or alleviating an autoimmune disease and/or complication thereof and/or nephritis and method for treating or alleviating an autoimmune disease and/or complication thereof and/or nephritis” (Industrial Technology Research Institute, priority 2016, dated 2020).
Read-outs that look alike come from different tables or passages of the source.

What was measured:
[1] = test system: IL-17 secretion in EL4 cells; assay: Anti-IL-17 secretion screening, platform of EL4 cells; format: cell-based, mouse; conditions: PMA + ionomycin, 18 hours
Protocol: 8. Method 8: Anti-IL-17 Secretion Drug Screening Through a Platform of EL4 Cells
The EL4 cells were seeded into a 96-well plate (1×10^5 cells/well), and an appropriate concentration of a drug to be tested was added therein (10 μl/well) and evenly mixed.
(§1) Next, the 96-well plate was placed in an incubator at 37° C. with 5% CO2 for 1 hour. After that, the stimuli, phorbol-12-myristate-13-acetate (PMA) (final concentration was 10 ng/ml), and ionomycin (final concentration was 5 ng/ml) were added to the 96-well plate. After being evenly mixed, the 96-well plate was placed in an incubator for 18 hours.
After 18 hours of culturing, the 96-well plate was centrifuged at 1200 rpm for 5 minutes to let the cells precipitate and the supernatant (cell-cultured medium) was transferred to a new 96-well plate (about 155 μl/well).
The cell-cultured medium in the new 96-well plate was 2-4 fold diluted and the IL-17 concentration was determined by mouse IL-17 ELISA kit (R&D, DY421E).
For both of cell viability and IL-17 content assays, the results of the group with phorbol-12-myristate-13-acetate (PMA) and ionomycin were set as 100%, and the secretion of IL-17 was expressed by percentage.

MCP-1 = assay: Lipopolysaccharide (LPS)-induced acute inflammation in mice, MCP-1; format: in vivo; conditions: plasma, 1.5 hours after 1 mg/kg LPS IP, BALB/c mice
Description: (§2) 5. Method 5: Model of Lipopolysaccharide (LPS)-Induced Acute Inflammation in Mice
(§3) 6-8 weeks old male BALB/c mice were purchased from BioLASCO Taiwan Co., Ltd. On the day that the animals entered, the mice were marked, separated into cages, and weighed. Then, the mice were quarantined for one week, and the breeding conditions meet the standards of the National Laboratory Animal Center (Taiwan). During the quarantine, the motility and environmental adaptability of the mice were observed. If the body weights of the mice increased normally, the mice were moved to the breeding region to await the implementation of the experiment.
(§4) Illumination for the breeding region was automatically controlled for 12-hr light-dark cycle, and the temperature was controlled at 23±2° C. The animals were free to obtain sufficient food and water. This strain of animals has had abundant basic reference information and data, and can be suitable for a functional evaluation test for inflammation, and the experimental method had been approved by Institutional Animal Care and Use Committees (IACUC) in the Industrial Technology Research Institute.
(§5) 5.2 Treatment of the Mice
(§6) Before the experiment, the mice were weighed and grouped to make the average body weight for each group has no obvious difference, and the clinical symptoms of the mice were recorded. Two to four hours before the experiment, the mice were fasting, but water was still regularly provided. At a specific time before or after being stimulated by lipopolysaccharides (LPS), the mice were administered a drug to be tested through oral administration, intraperitoneal injection (IP) or intravenous injection (IV), and after the administration, the clinical symptoms of the mice were observed and recorded. The mice of the control group were administered the same volume of solvent. The mice were stimulated by 1 mg/kg lipopolysaccharides (0.25 ml/mouse) through intraperitoneal injection (IP), and the clinical symptoms of the mice were observed and recorded.
After being stimulated by lipopolysaccharides for 1.5 hours, the mice were euthanized with excess CO2, and then whole blood of the mice was obtained through intra-cardiac puncture.
The whole blood of the mice was centrifuged at 6000 rpm at 4° C. for 10 minutes. After that, plasma was collected, and determinations of TNF-α, IL-6 and MCP-1 secretion amounts in the plasma were performed.
5.3 Determinations of TNF-α, IL-6 and MCP-1 Secretion Amounts
TNF-α, IL-6 and MCP-1 secretion amounts in the plasma were analyzed according to the analysis steps of Duoset® ELISA kit, and the steps are summarized as follows:
At room temperature, a capture antibody mixture solution was added to an ELISA 96 well plate (100 μl/well) to cover the surface of the ELISA 96-well plate. […]

[2] = test system: IL-17 secretion in peripheral blood leukocytes (PBLs); assay: Anti-IL-17 secretion screening, peripheral blood leukocyte (PBL) platform; format: cell-based; conditions: rat PBL, PMA + ionomycin, 48 hours
Protocol: 2. Method 2: Anti-IL-17 Secretion Drug Screening Through a Peripheral Blood Leukocyte (PBL) Platform
Blood of SD rat was obtained through saphenous vein sampling. The rat blood was placed in a centrifuge tube containing EDTA (final concentration was 2 mg/ml) and mixed well, and then 4-fold volume of ACK buffer was added to the centrifuge tube to lyse red blood cells. The above-mentioned centrifuge tube was placed in a 37° C. water bath for 5 minutes, and 4 folds volume of PBS buffer was added to the centrifuge tube and the centrifuge tube was centrifuged at a speed of 3000 rpm for 5 minutes, and the supernatant was removed. After that, the steps for lysing red blood cells were repeated twice and an appropriate volume of cell culture medium was added to the centrifuge.
as §1, with “The cells was implanted to a 96-well plate (2×10^5 cells/well), and an appropriate concentration of a drug to be tested was added therein (10 μl/well) and evenly mixed. Next,” for “Next,”, “30” for “10”, “1 μg/ml)” for “5 ng/ml)”, “48” for “18”
After 48 hours of culturing, the 96-well plate was centrifuged at 3000 rpm for 5 minutes to let the cells precipitate and the supernatant (cell-cultured medium) was transferred to a new 96-well plate (about 155 μl/well).
After the cell-cultured medium in the new 96 well plate was 2-4 fold diluted, a rat IL-17 ELISA kit (eBioscience, 88-7170) was used to determine IL-17 content thereof.
For both of cell viability assay and IL-17 content assay, the result of the group adding phorbol-12-myristate-13-acetate (PMA) and ionomycin was set as 100%, and secretion of IL-17 was shown by percentage.

IL-6 = assay: Lipopolysaccharide (LPS)-induced acute inflammation in mice, IL-6; format: in vivo; conditions: plasma, 1.5 hours after 1 mg/kg LPS IP, BALB/c mice
Description: as §2, §3, §4, §5
as §6, with “and recorded. […] The mice” for “and recorded. The mice of the control group were administered the same volume of solvent. The mice”, “and recorded. […]” for “and recorded.”
TNF-α, IL-6 and MCP-1 secretion amounts in the plasma were analyzed according to the analysis steps of Duoset® ELISA kit, and the steps are summarized as follows: […]

TNF-α = assay: Lipopolysaccharide (LPS)-induced acute inflammation in mice, TNF-α; format: in vivo; conditions: plasma, 1.5 hours after 1 mg/kg LPS IP, BALB/c mice
Description: as §2
as §3, with “experiment. […]” for “experiment.”
as §6, with “recorded. […]” for “recorded. Two to four hours before the experiment, the mice were fasting, but water was still regularly provided.”, “recorded. […]” for “recorded. The mice of the control group were administered the same volume of solvent.”, “recorded. […]” for “recorded.”

NZBWF1/J mice = format: in vivo; conditions: for Survival rate (%): 50 mg/kg, NZBWF1/J mice
Description: 6. Method 6: NZBWF Autoimmune Animal Model for Systemic Lupus Erythematosus (SLE)
NZBWF1/J female mice were purchased from The Jackson Laboratory, U.S.A, and after animal quarantine, the mice were fed to an appropriate age (about 16 to 25 weeks old).
Before the experiment, mice were randomly grouped according to the antibody to double stranded DNA (dsDNA) value of sera, then the mice were started to administrate test articles. Mice were administrated 5 days a week, and after 10-18 weeks of continuous administration, the mice were sacrificed. During the administration, body weight change was recorded every week, mice urine were collected every 1 to 2 week by gently pressing the abdomens of the mice and the urinary protein content (mg/dl) was determined by test strips and a protein quantitative kit.
After the experiment was completed, the urine was collected and the whole blood of the mice was obtained through intra-cardiac puncture. After that, kidneys of the mice were exteriorized and weighed. The appearance and pathological changes of kidneys were recorded, and the kidneys were preserved in 10% neutral formalin for pathological examinations. The pathological score was determined according to the literature, Shackelford et al. Toxicol. Pathol. 30: 93-96, and shown by a score of 0 to 5: a score of 0 represents not present; a score of 1 represents minimal (<1%); a score of 2 represents slight (1-25%); a score of 3 represents moderate (26-50%); a score of 4 represents moderate/severe (51-75%), and a score of 5 represents severe (76-100%).
6.2 Determination of Protein Content in Urine
The abdomen (bladder) of the mouse was gently pressed every 1 to 2 week to make the mouse urinate and the urine was collected in a 1.5 ml centrifuge tube, the protein content (mg/dl) in the urine was determined by urine test strip. The test strip was moistened with the urine and stood for 1 minute, and the protein content was determined by the color shown by the test strip. […] If the color shown by the test strip is between two color regions, the urinary protein content is determined by the mean of the values represented by the two regions. […]
The contents of blood urea nitrogen (BUN) and creatinine (CRE) in the serum were determined by FUJI DRI-CHEM 4000i biochemistry analyzer, and the steps are summarized as follows:
Before the experiment, the urea nitrogen and creatinine test strips and the serum to be tested were placed at room temperature to back to room temperature. After that, according to the instructions of the analyzer, 10 μl of serum was added to the central portion of the test strip (if the value exceeded the detectable range, the serum was appropriately diluted with sterilized water), and then determined. […]

Row | Compound | IL-17 inhibition IC50, EL4 cells [1] | production of the inflammatory factor MCP-1 (MCP-1) | IL-17 inhibition IC50, peripheral blood leukocyte (PBL) [2] | production of the inflammatory factor IL-6 (IL-6) | production of the inflammatory factor TNF-α (TNF-α) | other results
1 | COc1c(CC=C(C)C)c(C=O)cc2c1[nH]c1ccccc12 [F3m, indizoline] | 2.8 µg/mL | capable of significantly inhibiting the production of the inflammatory factor, MCP-1 | 2.4 µg/mL | capable of significantly inhibiting the production of the inflammatory factor, IL-6 | – | –
2 | CC(C)=CCCC(C)=CCOc1c2occc2cc2ccc(=O)oc12 [F4m, 8-geranyloxypsoralen] | 15.9 µg/mL | capable of significantly inhibiting the production of the inflammatory factor, MCP-1 | 4.3 µg/mL | capable of significantly inhibiting the production of the inflammatory factor, IL-6 | capable of significantly inhibiting the production of the inflammatory factor, TNF-α | survival rate of NZBWF1/J mice (in words) (NZBWF1/J mice; concluded from HE-07-Fr4 (more than 80% of F4m), Table 10): capable of effectively improving the survival rate of NZBWF1/J mice
3 | CC(C)=CCOc1c2occc2cc2ccc(=O)oc12 [F5m, imperatorin] | – | capable of significantly inhibiting the production of the inflammatory factor, MCP-1 | – | – | capable of significantly inhibiting the production of the inflammatory factor, TNF-α | IC50 ([1]; Mus musculus, read-out: IL-17 inhibition IC50, EL4 cells): 45 µg/mL; IC50 ([2]; Leukocyte, read-out: IL-17 inhibition IC50, peripheral blood leukocyte (PBL)): 20.5 µg/mL
4 | CC1(C)O[C@@H]1COc1c2occc2cc2ccc(=O)oc12 [F7m, prangenin] | 47.2 µg/mL | – | 28.7 µg/mL | – | – | –
5 | O=P1(N(CCCl)CCCl)NCCCO1 (centres unmarked) [cyclophosphamide] | – | – | – | – | – | Survival rate (%) (NZBWF1/J mice; Table 4 study): 100%; Survival rate (%) (NZBWF1/J mice; Table 8 study): 100%; Survival rate (%) (NZBWF1/J mice; Table 10 study, 12 weeks): 100%
6 | ζ-clausenamide [F6m] | 5.1 µg/mL | capable of significantly inhibiting the production of the inflammatory factor, MCP-1 | 3.0 µg/mL | capable of significantly inhibiting the production of the inflammatory factor, IL-6 | – | –
